From patent US4742045A, “Glycopeptide antibiotics” (SmithKline Beckman Corporation, priority 1986, dated 1988)
≈ marks a conversion by molar mass, not a printed value. Like-named read-outs stand apart in the source and are kept apart here.

Tests used:
Streptococcus faecalis = assay: standard microtiter assay, minimum inhibitory concentration; type: cell-based
Source text: (§1) Representative results of standard microtiter assays are reported in Tables 1, 2 and 3 which follow, as the minimum inhibitory concentration of antibiotic (μg/ml).
(§2) In Table 1, test organisms 1-13 were different strains of Staphylococcus aureus, and 14-16 were different strains of Staphylococcus epidermidis. In Table 2, test organisms 1-5 were different strains of S. aureus; 6, 8, 12 and 14 were different strains of S. epidermidis; 7 was a Staphylococcus haemolyticus; 9 and 10 were different strains of Streptococcus faecalis; 11 was a Streptococcus pyogenes; and 13 was a Staphylococcus saprophyticus. In Table 3, test organisms 1-3 were different strains of S. aureus; 4 and 6 were different strains of S. epidermidis; 5 was a S. haemolyticus and 7 and 8 were different strains of Streptococcus faecalis. Except where individual components are indicated, the CWI-785 antibiotic employed was the CWI-785 complex; in some cases, HCl salts of the CWI-785 antibiotic were employed.
(§3) The number of strains tested is shown in parentheses below each organism. The average MIC is reported in μg/ml.
(§4) In Table 5 are shown data from standard microtiter assays carried out in a presence of no serum, 50% human serum (hum.) and 50% mouse serum (mse.). The test organisms were 1: S. aureus; 2,4 and 5: different strains of S. epidermidis; 3: S. haemolyticus; 6: S. saprophyticus; 7 and 8: different strains of S. faecalis.

[1] = tested on: Staphylococcus epidermidis; assay: as above; type: cell-based; conditions: Staphylococcus epidermidis
Source text: as §1, §2, §4

[2] = tested on: Staphylococcus haemolyticus; assay: as above; type: cell-based; conditions: Staphylococcus haemolyticus
Source text: as §1, §2, §4

[3] = tested on: Staphylococcus saprophyticus; assay: as above; type: cell-based; conditions: Staphylococcus saprophyticus
Source text: as §1, §2, §4

Streptococcus pyogenes = assay: as above; type: cell-based; conditions: Streptococcus pyogenes, read-out: minimum inhibitory concentration
Source text: as §1, §2

Coag-neg. Staphylococci = assay: MIC against an expanded panel; type: cell-based; conditions: Table 4, Coag-neg. Staphylococci (24 strains)
Source text: as §3

Group A Strep. = assay: MIC against an expanded panel; type: cell-based; conditions: Table 4, Group A Strep. (6 strains)
Source text: as §3

Group B Strep. = assay: MIC against an expanded panel; type: cell-based; conditions: Table 4, Group B Strep. (4 strains)
Source text: as §3

JK Diptheroids = assay: MIC against an expanded panel; type: cell-based; conditions: Table 4, JK Diptheroids (19 strains)
Source text: as §3

Viridans = assay: MIC against an expanded panel; type: cell-based; conditions: Table 4, Viridans (2 strains)
Source text: as §3

S. aureus = assay: mice infected intraperitoneally, dosed 1 hr after infection, ED50; type: in vivo; conditions: Staphylococcus aureus, 1 h, antibiotic i.v. 1 hr post infection
Procedure: (§5) The in vivo activity of the CWI-785 complex and its components and hydrolysis products was confirmed by administering selected CWI-785 antibiotics to mice infected with various gram-positive pathogens. In one representative assay, in which mice infected intraperitoneally with 46.8 LD50 's of S. aureus (strain 1, Tables 1 and 2) were dosed once, subcutaneously one hour after infection, the following ED50 's (mg/kg) were observed: CWI-785B: 2.4, CWI-785C: 3.1, CWI-785: 3.8, HPB3: 0.9, vancomycin: 0.7. In a second representative assay carried out as above except that mice were infected with 3.17 LD50 's of S. faecalis (strain 9, Table 2), the following ED50 's were observed: HPB3 hydrochloride: 1.6, HPB4 hydrochloride: 1.6, vancomycin: 2.2, teicoplanin: 1.3.
(§6) In Table 6, below, is shown the ED50 in mg/kg of HPB4 in comparison to vancomycin and teicoplanin. Mice were injected i.p. with the indicated organism and then i.v., 1 hr post infection, with the indicated antibiotic.

S. faecalis = assay: as above; type: in vivo; conditions: Enterococcus faecalis, 1 h
Procedure: as §5, §6

S. epidermidis = assay: mice infected i.p., antibiotic i.v. 1 hr post infection, ED50; type: in vivo; conditions: Staphylococcus epidermidis, 1 h
Procedure: as §6

S. haemolyticus = assay: as above; type: in vivo; conditions: Staphylococcus haemolyticus, 1 h
Procedure: as §6

STAPH. AUREUS HH 127 = assay: prophylactic activity, dosing preinfection; type: in vivo, mice; conditions: for ED50: Staphylococcus aureus, in Mus musculus

## CN[C@H](CC(C)C)C(=O)N[C@H]1C(=O)N[C@@H](CC(N)=O)C(=O)N[C@H]2C(=O)N[C@H]3C(=O)N[C@H](C(=O)N[C@H](C(=O)O)c4cc(O)cc(O)c4-c4cc3ccc4O)[C@H](O)c3ccc(c(Cl)c3)Oc3cc2cc(c3O[C@@H]2O[C@H](CO)[C@@H](O)[C@H](O)[C@H]2O[C@H]2C[C@](C)(N)[C@H](O)[C@H](C)O2)Oc2ccc(cc2Cl)[C@H]1O [Vancomycin, vancomycin]
Streptococcus faecalis; Enterococcus faecalis
  MIC50: 0.4 µg/mL (≈ 0.276 µM)
Streptococcus faecalis; Enterococcus faecalis, Table 5 organism 7 S. faecalis, 50% Hum. Serum
  MIC: 3.1 µg/mL (≈ 2.14 µM)
Streptococcus faecalis; Enterococcus faecalis, Table 5 organism 7 S. faecalis, 50% Mse. Serum
  MIC: 6.3 µg/mL (≈ 4.35 µM)
Streptococcus faecalis; Enterococcus faecalis, Table 5 organism 7 S. faecalis, No Serum
  MIC: 1.6 µg/mL (≈ 1.1 µM)
Streptococcus faecalis; Enterococcus faecalis, Table 5 organism 8 S. faecalis, 50% Hum. Serum
  MIC: 3.1 µg/mL (≈ 2.14 µM)
Streptococcus faecalis; Enterococcus faecalis, Table 5 organism 8 S. faecalis, 50% Mse. Serum
  MIC: 6.3 µg/mL (≈ 4.35 µM)
Streptococcus faecalis; Enterococcus faecalis, Table 5 organism 8 S. faecalis, No Serum
  MIC: 1.6 µg/mL (≈ 1.1 µM)
Streptococcus faecalis; Enterococcus faecalis, read-out: MBC50
  MBC: 50 µg/mL (≈ 34.5 µM)
Streptococcus faecalis; Enterococcus faecalis, read-out: minimum inhibitory concentration, Table 2 test organism 9, Streptococcus faecalis strain
  MIC: 1.6 µg/mL (≈ 1.1 µM)
Streptococcus faecalis; Enterococcus faecalis, read-out: minimum inhibitory concentration, Table 2 test organism 10, Streptococcus faecalis strain
  MIC: 1.6 µg/mL (≈ 1.1 µM)
Streptococcus faecalis; Table 4, Strep. faecalis (12 strains)
  MIC RANGE: 0.4 to 0.8 µg/mL
[1]; Table 5 organism 2 S. epidermidis, 50% Hum. Serum
  MIC: 3.1 µg/mL (≈ 2.14 µM)
[1]; Table 5 organism 2 S. epidermidis, 50% Mse. Serum
  MIC: 3.1 µg/mL (≈ 2.14 µM)
[1]; Table 5 organism 2 S. epidermidis, No Serum
  MIC: 1.6 µg/mL (≈ 1.1 µM)
[1]; Table 5 organism 4 S. epidermidis, 50% Hum. Serum
  MIC: 3.1 µg/mL (≈ 2.14 µM)
[1]; Table 5 organism 4 S. epidermidis, 50% Mse. Serum
  MIC: 3.1 µg/mL (≈ 2.14 µM)
[1]; Table 5 organism 4 S. epidermidis, No Serum
  MIC: 1.6 µg/mL (≈ 1.1 µM)
[1]; Table 5 organism 5 S. epidermidis, 50% Hum. Serum
  MIC: ≤ 0.1 µg/mL
[1]; Table 5 organism 5 S. epidermidis, 50% Mse. Serum
  MIC: 3.1 µg/mL (≈ 2.14 µM)
[1]; Table 5 organism 5 S. epidermidis, No Serum
  MIC: 1.6 µg/mL (≈ 1.1 µM)
[1]; read-out: minimum inhibitory concentration, Table 1 test organism 14, S. epidermidis strain
  MIC: 1.6 µg/mL (≈ 1.1 µM)
[1]; read-out: minimum inhibitory concentration, Table 1 test organism 15, S. epidermidis strain
  MIC: 3.1 µg/mL (≈ 2.14 µM)
[1]; read-out: minimum inhibitory concentration, Table 1 test organism 16, S. epidermidis strain
  MIC: 1.6 µg/mL (≈ 1.1 µM)
[1]; read-out: minimum inhibitory concentration, Table 2 test organism 6, S. epidermidis strain
  MIC: 1.6 µg/mL (≈ 1.1 µM)
[1]; read-out: minimum inhibitory concentration, Table 2 test organism 8, S. epidermidis strain
  MIC: 1.6 µg/mL (≈ 1.1 µM)
[1]; read-out: minimum inhibitory concentration, Table 2 test organism 12, S. epidermidis strain
  MIC: 1.6 µg/mL (≈ 1.1 µM)
[1]; read-out: minimum inhibitory concentration, Table 2 test organism 14, S. epidermidis strain
  MIC: 1.6 µg/mL (≈ 1.1 µM)
[2]; Table 5 organism 3 S. haemolyticus, 50% Hum. Serum
  MIC: 3.1 µg/mL (≈ 2.14 µM)
[2]; Table 5 organism 3 S. haemolyticus, 50% Mse. Serum
  MIC: 6.3 µg/mL (≈ 4.35 µM)
[2]; Table 5 organism 3 S. haemolyticus, No Serum
  MIC: 3.1 µg/mL (≈ 2.14 µM)
[2]; read-out: minimum inhibitory concentration, Table 2 test organism 7, Staphylococcus haemolyticus
  MIC: 3.1 µg/mL (≈ 2.14 µM)
[3]; Table 5 organism 6 S. saprophyticus, 50% Hum. Serum
  MIC: 3.1 µg/mL (≈ 2.14 µM)
[3]; Table 5 organism 6 S. saprophyticus, 50% Mse. Serum
  MIC: 6.3 µg/mL (≈ 4.35 µM)
[3]; Table 5 organism 6 S. saprophyticus, No Serum
  MIC: 1.6 µg/mL (≈ 1.1 µM)
[3]; read-out: minimum inhibitory concentration, Table 2 test organism 13, Staphylococcus saprophyticus
  MIC: 1.6 µg/mL (≈ 1.1 µM)
Streptococcus pyogenes
  MIC: 0.8 µg/mL (≈ 0.552 µM)
Coag-neg. Staphylococci
  MIC RANGE: 0.4 to 6.3 µg/mL
Coag-neg. Staphylococci; read-out: MIC50
  MIC50: 3.1 µg/mL (≈ 2.14 µM)
Group A Strep.
  MIC RANGE: 0.04 to 0.8 µg/mL
Group A Strep.; read-out: MIC50
  MIC50: 0.4 µg/mL (≈ 0.276 µM)
Group B Strep.
  MIC RANGE: 0.4 to 0.8 µg/mL
JK Diptheroids
  MIC RANGE: 0.8 to 1.6 µg/mL
JK Diptheroids; read-out: MIC50
  MIC50: 1.6 µg/mL (≈ 1.1 µM)
Viridans
  MIC RANGE: 0.05 to 0.8 µg/mL
S. aureus; S. aureus 2620 (24 × LD50) i.p.
  ED50: 1.4 mg/kg
S. aureus; S. aureus HH 127 (35 × LD50) i.p.
  ED50: 0.4 mg/kg
S. faecalis
  ED50: 1.3 mg/kg
S. epidermidis
  ED50: < 1.25 mg/kg
S. haemolyticus
  ED50: 10 mg/kg
STAPH. AUREUS HH 127; iv
  ED50: 0.156 mg/kg
STAPH. AUREUS HH 127; sc
  ED50: 0.31 mg/kg
STAPH. AUREUS HH 127; Table 7: 40 mg/kg, 4 hr preinfection, S.C.
  PERCENT SURVIVAL: 20%
STAPH. AUREUS HH 127; Table 8: 40 mg/kg (I.V.), 6 hr preinfection
  PERCENT SURVIVAL: 10%
